# Measured values as given in patent publication US8748108B2, “Biomarkers for identifying patient classes” (AbbVie Inc., priority 2006, dated 2014).
# System: relapsed or refractory SCLC
# Test: phase 2 study, efficacy (RECIST, PFS, OS)
# Format: in vivo, human
# From the text: Eligible candidates for the phase 2 portion of this study (NCT00445198) were adults with histologically or cytologically confirmed SCLC, extensive stage, with progressive disease after at least one prior chemotherapy regimen (any number of prior therapies were allowed). […] Patients were excluded if they had underlying or predisposing condition of bleeding (history of non-chemotherapy induced thrombocytopenia with bleeding within 1 year, active peptic ulcer or hemorrhagic esophagitis/gastritis, active immune thrombocytopenic purpura, etc.). This study was conducted according to the Declaration of Helsinki and with approval from Institutional Review Boards of all participating study sites. All participants provided written informed consent before participating. The phase 2 component of this clinical trial was an open-label, single arm study of patients with recurrent and progressive SCLC after at least one prior therapy. Based on the dose and schedule determined in phase 1 (Example 3), patients were treated with navitoclax 150 mg daily for 1 week, and 325 mg daily thereafter. Cycle duration was defined as 21 days. Subjects could remain on therapy indefinitely, until disease progression or intolerable toxicity. […] New guidelines to evaluate the response to treatment in solid tumors. European Organization for Research and Treatment of Cancer, National Cancer Institute of the United States, National Cancer Institute of Canada. […] Additional efficacy variables included PFS and OS. All subjects enrolled were included in the analyses. Descriptive statistics were used to summarize demographic variables. Progression free survival and overall survival were computed using Kaplan-Meier methodology and 95% confidence intervals were provided. Progression free survival (PFS) was defined as the number of days from the date the subject started the study drug to the date the subject experienced an event of disease progression, or if progression was not experienced, then the date of death if the death occurred within 42 days (length of time between tumor assessments). Overall survival (OS) was defined as the number of days from the date the subject started the study drug to the date of the subject's death. […] Correlations between median BCL2 copy number and pro-GRP were performed by the Pearson correlation; M30 and CTC change from baseline comparisons among Pro-GRP groups were performed by one-way ANOVA using the JMP 8.0 statistical software. Optimized thresholds for the tumor markers were obtained using BATTing (Bootstrapping and Aggregating Thresholds from Trees) method (See, […]., Bagging Predictors. Machine Learning 26:123-140, 1996, fully incorporated herein by reference). Briefly, BATTing uses a tree-based model for threshold estimation. However, a single tree may be unstable and not robust enough against small perturbations in the distribution of the data. In addition, single tree-based models are known be prone to overfitting (that is, it is over-specified for training data) and have poor prediction power. Those issues are addressed in BATTing by aggregating the thresholds from multiple trees to get a more robust estimate. Each tree is built using a bootstrap random sample drawn from the original population and provides its own cutoff. The final estimate of the threshold is calculated as the median from the distribution of cutoffs generated from the multiple trees. This procedure was implemented using the R statistical software (available online from the R project). Several exploratory correlative biomarkers were included in this study, including both CTC enumeration and plasma protein markers associated with small cell lung cancer. The biomarker analysis included all phase II patients and, to increase the sample size, patients with SCLC and those dosed with >325 mg navitoclax on the phase I portion of this study were also included in the analysis. […]
# [1] = baseline CYFRA 21.1 above 2.3 ng/ml
# [2] = baseline CYFRA 21.1 below 2.3 ng/ml
smiles,measurement,setting,value
"CC1(C)CCC(c2ccc(Cl)cc2)=C(CN2CCN(c3ccc(C(=O)NS(=O)(=O)c4ccc(NC(CCN5CCOCC5)CSc5ccccc5)c(S(=O)(=O)C(F)(F)F)c4)cc3)CC2)C1 (stereo in doubt) [navitoclax, N-(4-(4-(2-(4-chlorophenyl)-5,5-dimethyl-1-cyclohex-1-en-1-yl)methyl)pip-erazin-1-yl)benzoyl)-4-(((1R)-3-(morpholin-4-yl)-1-((phenylsulfanyl)methyl)propyl)amino)-3-((trifluoromethyl)sulfonyl)benzenesulfonamide]",Median OS Above threshold,baseline CTC above 12/7.5 ml,67 (17) D
same,Median PFS Above threshold,baseline CTC above 12/7.5 ml,46 (15) D
same,Median PFS Below threshold,baseline CTC below 12/7.5 ml,63 (14) D
same,Median OS Above threshold,[1],67 (19) D
same,Median PFS Above threshold,[1],44 (19) D
same,Median OS Below threshold,[2],242 (20) D
same,Median PFS Below threshold,[2],53 (20) D
same,Median OS Above threshold,baseline NSE above 15 ng/ml,72 (24) D
same,Median PFS Above threshold,baseline NSE above 15 ng/ml,44 (24) D
same,Median OS Below threshold,baseline NSE below 15 ng/ml,242 (15) D
same,Median PFS Below threshold,baseline NSE below 15 ng/ml,55 (15) D
same,median OS,"patients above thresholds for both NSE and CYFRA (poor prognosis), n=15",61 days
same,median PFS,"patients above thresholds for both NSE and CYFRA (poor prognosis), n=16",41 days
same,median OS,"patients not above both NSE and CYFRA thresholds, n=18",242 days
same,median PFS,"patients not above both NSE and CYFRA thresholds, n=23",55 days
same,Median progression-free survival (PFS),"phase 2, 39 patients",1.5 months
same,best response of disease progression (PD),"phase 2, 39 patients",41%
same,confirmed partial response (PR),"phase 2, 39 patients",2.6%
same,inevaluable for response,"phase 2, 39 patients",33.3%
same,median overall survival (OS),"phase 2, 39 patients",3.2 months
same,stable disease (SD) as best response,"phase 2, 39 patients",23.1%
same,"Best response PD, N (%)","phase 2, N = 39",16 (41.0) N (%)
same,"Best response PR, N (%)","phase 2, N = 39",1 (2.6) N (%)
same,"Best response SD, N (%)","phase 2, N = 39",9 (23.1) N (%)
same,"Median OS, mo (95% CI)","phase 2, N = 39","3.2 (2.3, 8.1) mo"
same,"ORR, % (95% CI)","phase 2, N = 39","2.6 (0.1, 13.5) %"
same,"Median PFS, mo (95% CI)","phase 2, N = 39, 150 mg daily 1 week then 325 mg daily","1.5 (1.4, 1.7) mo"
same,"Best response inevaluable, N (%)","phase 2, N = 39, baseline tumor data only",13 (33.3) N (%)
